Results taken from paper PMC7018803, “A randomized, placebo-controlled, phase 1 study to evaluate the effects of TAK-063 on ketamine-induced changes in fMRI BOLD signal in healthy subjects” (Psychopharmacology, 2019).

How the values were obtained:
[1] = Plasma ketamine concentrations during intravenous bolus plus continuous infusion; type: in vivo; settings: human
Protocol: (§1) Subjects checked in on day − 1 of each treatment period during which vital signs, electrocardiogram (ECG), and laboratory safety tests were repeated. On day 1 of each treatment period, subjects received a 3-, 10-, or 30-mg TAK-063 dose or placebo tablets. Participants then relaxed, slept, or watched movies while remaining in the research environment. Ketamine (0.12 mg/kg intravenous bolus over 60 s followed by a continuous infusion of 0.31 mg/kg/h over approximately 150 min) was administered 4 h after TAK-063 or placebo (Fig. 1). This ketamine dose was based on a previous study that achieved steady-state concentrations of 75 ng/mL and provided a robust BOLD signal with minimal psychotomimetic symptoms (De Simoni et al. [2013]).
Blood samples were collected for the determination of TAK-063 and ketamine concentrations, and ketamine concentrations were used to verify intravenous delivery of ketamine. Blood samples for determination of TAK-063 concentration were collected at pre-dose and at 0.5, 2, 3, 4.5, 6, 8, 10, 12, and 24 h post dose. Blood samples for determination of ketamine concentration were collected at 0.5, 1, 2, and 2.5 h after administration of ketamine. The target ketamine concentration was established at 75 ng/mL. PK samples were not collected from the arm in which ketamine was administered.

[2] = 0.12 mg/kg iv bolus then 0.31 mg/kg/h infusion; ref De Simoni et al. [2013]; cited from earlier work
[3] = system: healthy male subjects; experiment: Ketamine-induced changes in fMRI BOLD signal during resting state; type: in vivo, human
Protocol: as §1
The scanning protocol for the current study was very comprehensive and included multiple MR approaches. This publication reports the BOLD fMRI data for the working memory task, but also resting state fMRI. The magnetic scanning portion of the neuroimaging test battery was initiated 20 min before ketamine dosing. Imaging was performed using a 3 Tesla Siemens Trio scanner. The MR scanning protocol was initiated 20 min before ketamine dosing; prior to scanning, a structural magnetization prepared rapid gradient echo (MPRAGE) scan was collected. As part of the scanning protocol, each subject received 20 min of scanning − 10 min arterial spin labeling (ASL) plus 10 min resting BOLD prior to ketamine infusion. After ketamine infusion, the resting state fMRI BOLD acquisition continued for an additional 10 min. Next, a Spatial Working Memory task-induced fMRI BOLD acquisition was performed for 15 min. Following these BOLD acquisitions, another 10 min ASL scan was acquired and a 10-min T1 relaxometry scan was conducted. The MR scanning sequence ended with a 5-min MPRAGE acquisition.
Fifty sequential gradient-echo echoplanar images (EPIs) sensitive to blood oxygenation level-dependent (BOLD) signal were collected in contiguous slices of 6-mm thickness, with 3000-ms repetition time, 40-ms echo time, 20 × 20-cm field of view, a 64 × 64 image matrix, 70° flip angle, and an in-plane resolution of 3 × 3 mm. A working memory challenge based on the expectancy A-X Continuous Performance Test (AX-CPT) paradigm was presented. The AX-CPT task was implemented in Eprime and presents 144 trials in four blocks of 36 trials. Before scanning, participants practiced the task (Barch et al. [2001]; MacDonald et al. [2003]).
We conducted a number of pre-processing steps to standardize examination of data after acquisition. These steps included (a) using the anatomical image (T1 weighted MPRAGE acquired for each subject at the beginning of the imaging session) to determine the parameters for spatial normalization to the EPI template image supplied with statistical parametric mapping (SPM) using a 12-parameter transformation; (b) registering functional images to correct for subject movement during the experimental paradigm; (c) normalizing functional images to transform images from analyzed subjects into the same standard space; (d) smoothing images (8-mm full width at half maximum [FWHM]) to minimize normalization artifacts and improve signal to noise ratio; (e) applying a high pass filter of 1200 s to the data following spatial smoothing to minimize the influence of very low frequency noise present in fMRI BOLD data without distorting the ketamine response profile. […]

[4] = system: healthy human subjects; settings: cited from earlier work

Structure (SMILES) | concentration at 30 min ([1]; 30 min post dose, with placebo or TAK-063 3 to 30 mg, range of means) [ng/mL] | Cmax ([1]; during continuous infusion, range of means across regimens) [ng/mL] | Tmax ([1]; range across regimens) [h] | steady-state concentration [2] [ng/mL] | activation in ROIs ([3]; percent BOLD signal change, resting state (Fig. 7)) | effect on fMRI BOLD resting signal ([3]; placebo group, most regions studied) | effect on fMRI BOLD in cingulate/BA25 ([3]; placebo group, resting state) | ketamine-induced changes in BOLD signal ([4]; ref Doyle et al. [2013], Shcherbinin et al. [2015]) | ketamine-induced changes in brain perfusion (ASL) ([4]; ref Shcherbinin et al. [2015])
CNC1(c2ccccc2Cl)CCCCC1=O (stereo not drawn) [ketamine] | 69.9 to 83.3 | 168 to 179 | 2.3 to 2.5 | 75 | increased activation in all ROIs examined | increased fMRI BOLD resting signal | decrease in fMRI BOLD |  | 
Cc1nc2n(c(=O)c1CCN1CCC(c3noc4cc(F)ccc34)CC1)CCCC2 [risperidone] |  |  |  |  |  |  |  | reversed | increased ketamine-induced perfusion changes
